Among the test systems are ACHN renal; COLO 205 colon; HCC-2998 colon; HOP-62 NSCLC; MALME-3M melanoma; OVCAR-3 ovarian; SF-295 CNS; UACC-62 melanoma; UO-31 renal; MDA-MB-435.
Holding throughout (assay): inhibition of tumour cell growth, NCI panel, 48 h

This is an account of results in PubChem BioAssay (NCI).

Several values for one entry are separate records, joined by “and”; a condition that tells them apart may be missing. Equal values may be shown once.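 Exposure lasted 48 hours, with cells grown in 96-well plates and compounds tested at five concentrations. Here, GI50 denotes the concentration required for 50% inhibition of growth. TGI: concentration producing complete growth inhibition.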

As to `CC1(O)CC2C(CC1SCc1ccccc1)C2(C)C` (stereo unspecified), the TGI was 34.5 µM and 30.4 µM in the assay on ACHN renal; 35.6 µM and 30.6 µM in the assay on COLO 205 colon; 50 µM and > 100 µM in the assay with HCC-2998 colon; 57.9 µM and 30.5 µM with HOP-62 NSCLC; 44.1 µM and 30.4 µM in the assay with MALME-3M melanoma; 33.6 µM and 25.2 µM with OVCAR-3 ovarian. The TGI is 43.4 µM in the assay on SF-295 CNS; 92.3 µM and 33.4 µM with UACC-62 melanoma; > 100 µM and 27.9 µM with UO-31 renal. In addition, the GI50 in the assay on HCC-2998 colon is 24.1 µM and > 100 µM; in the assay with UO-31 renal, 31.2 µM and 14.5 µM.

For the compound `O=C(/C=N/O)Nc1cccc(Cl)c1I`, the TGI in the assay with ACHN renal, in the assay on COLO 205 colon, with HCC-2998 colon, in the assay with HOP-62 NSCLC, in the assay with MALME-3M melanoma and in the assay with OVCAR-3 ovarian was greater than 100 µM each time. In addition, the values for the TGI in the assay on SF-295 CNS, in the assay with UACC-62 melanoma and in the assay with UO-31 renal were greater than 100 µM, greater than 100 µM and 78.3 µM, respectively.

On to `CNC(=O)N(CCCCC(NC(C)=O)C(=O)NCc1ccccc1)Cc1ccccc1` (stereo unspecified), for which the TGI with ACHN renal, in the assay on COLO 205 colon, in the assay with HCC-2998 colon, in the assay on HOP-62 NSCLC, in the assay on MALME-3M melanoma and with OVCAR-3 ovarian was greater than 100 µM each time. Besides, the TGI in the assay on SF-295 CNS, in the assay on UACC-62 melanoma and in the assay with UO-31 renal was greater than 100 µM throughout.

In the case of `CCOc1ccc(N=Nc2c(-c3ccccc3)nn(C(=O)CC(=O)Nc3ccccc3Cl)c2-c2ccccc2)cc1`, the TGI in the assay on ACHN renal, in the assay with COLO 205 colon, with HCC-2998 colon, with HOP-62 NSCLC, with MALME-3M melanoma and in the assay on OVCAR-3 ovarian was greater than 100 µM each time. In addition, the TGI in the assay on SF-295 CNS, with UACC-62 melanoma and in the assay with UO-31 renal was greater than 100 µM each time.

Turning to `CSc1ccc2c(c1)N(CCCN(C)C)c1ccccc1S2`, the TGI in the assay with ACHN renal was 24.1 µM; in the assay on COLO 205 colon, 31.7 µM; with HOP-62 NSCLC, 28.4 µM; in the assay with MALME-3M melanoma, 22 µM; in the assay on MDA-MB-435, 17 µM; in the assay on OVCAR-3 ovarian, 27.2 µM. In addition, the TGI is 26.8 µM with SF-295 CNS and 22.4 µM in the assay on UACC-62 melanoma.

As for `O=C(Nc1ccc(-n2cc(-c3ccncc3)c(-c3ccc(Cl)c(O)c3)n2)cc1)c1ccc(Cl)c(Cl)c1`, the GI50 in the assay with ACHN renal is 4.2 µM; in the assay on COLO 205 colon, 4.3 µM; in the assay on HCC-2998 colon, 3.43 µM; in the assay on HOP-62 NSCLC, 0.711 µM; in the assay with MDA-MB-435, 2.73 µM; in the assay on OVCAR-3 ovarian, greater than 100 µM. Further, the GI50 with SF-295 CNS is 1.01 µM; with UACC-62 melanoma it was 3.22 µM; in the assay with UO-31 renal it was 2.83 µM. For the same compound, the TGI is greater than 100 µM with ACHN renal; greater than 100 µM in the assay on COLO 205 colon; 19.7 µM in the assay on HCC-2998 colon; 2.65 µM in the assay on HOP-62 NSCLC; greater than 100 µM in the assay with MDA-MB-435; greater than 100 µM with OVCAR-3 ovarian. For the same compound, the values for the TGI in the assay with SF-295 CNS, in the assay on UACC-62 melanoma and in the assay on UO-31 renal were 2.77 µM, 22.4 µM and 8.62 µM, respectively.

For `COc1cc2c(c(OC)c1OC)-c1ccc(SC)c(=O)cc1C(CC(=O)Oc1ccccc1F)C2` (stereo unspecified), the TGI is greater than 7.5 µM in the assay with ACHN renal; 0.0376 µM in the assay on COLO 205 colon; 0.373 µM with HCC-2998 colon; greater than 7.5 µM with HOP-62 NSCLC; greater than 7.5 µM in the assay with MALME-3M melanoma; 0.0272 µM in the assay with OVCAR-3 ovarian. The TGI with SF-295 CNS was greater than 7.5 µM; in the assay with UACC-62 melanoma it was 0.0688 µM; in the assay on UO-31 renal it was greater than 7.5 µM.

As for `CCOC(=O)C(=O)Nc1nc2ccc(OC)cc2s1`, the TGI with ACHN renal, in the assay on COLO 205 colon, in the assay with HCC-2998 colon, in the assay with HOP-62 NSCLC, in the assay on MALME-3M melanoma and in the assay on OVCAR-3 ovarian was greater than 100 µM each time. The TGI in the assay with SF-295 CNS, with UACC-62 melanoma and with UO-31 renal was greater than 100 µM in each case.

Take `Nc1cccc(C(=O)/C=C/c2ccccc2O)c1`: the TGI in the assay with ACHN renal, in the assay with COLO 205 colon, in the assay on HCC-2998 colon, in the assay with HOP-62 NSCLC, with MALME-3M melanoma and in the assay on OVCAR-3 ovarian was greater than 100 µM in each case. For the same compound, the TGI in the assay with SF-295 CNS, in the assay on UACC-62 melanoma and with UO-31 renal was greater than 100 µM in each case.

For `Cc1ncc([N+](=O)[O-])n1CCOc1ccc(C(=O)/C=C/c2ccc(C(F)(F)F)cc2)cc1`, the GI50 with ACHN renal was 2.77 µM; with COLO 205 colon, 2.11 µM; with HCC-2998 colon, 5.85 µM; in the assay with HOP-62 NSCLC it was 2.53 µM; with MDA-MB-435 it was 3.56 µM; in the assay with OVCAR-3 ovarian, 2.37 µM. In addition, the GI50 with SF-295 CNS was 3.47 µM; with UACC-62 melanoma, 4.73 µM; in the assay on UO-31 renal it was 1.48 µM. Further, the TGI with ACHN renal stood at 9.14 µM; in the assay on COLO 205 colon, 4.67 µM; with HCC-2998 colon it was 18.3 µM; in the assay on HOP-62 NSCLC, 7.29 µM; with MDA-MB-435, 13.9 µM; in the assay with OVCAR-3 ovarian, 5.7 µM. The TGI with SF-295 CNS stood at 13.8 µM; in the assay on UACC-62 melanoma, 17.6 µM; in the assay on UO-31 renal it was 2.87 µM.

With `COc1cc([C@H]2c3cc4c(cc3[C@H](NCc3ccc(F)cc3)C3COC(=O)[C@H]32)OCO4)cc(OC)c1O` (stereo partly specified), the TGI amounted to 4.34 µM in the assay on ACHN renal; 31.5 µM in the assay on COLO 205 colon; 23.8 µM with HCC-2998 colon; 3.82 µM in the assay with HOP-62 NSCLC; 19.5 µM in the assay with MALME-3M melanoma; 29.3 µM in the assay with OVCAR-3 ovarian. The values for the TGI in the assay on SF-295 CNS, with UACC-62 melanoma and in the assay with UO-31 renal were 17.9 µM, 6.68 µM and 14.9 µM, respectively.

Consider `NC(=O)N1N=C2c3ccccc3OC[C@H]2[C@@H]1c1ccccc1`, for which the TGI was greater than 100 µM with ACHN renal; 51.5 µM in the assay with COLO 205 colon; greater than 37.1 µM in the assay on HCC-2998 colon; greater than 100 µM with HOP-62 NSCLC; greater than 100 µM with MALME-3M melanoma; greater than 76.3 µM in the assay on OVCAR-3 ovarian. The results for the TGI in the assay with SF-295 CNS, in the assay with UACC-62 melanoma and in the assay on UO-31 renal were greater than 35.7 µM, 19.9 µM and greater than 100 µM, respectively.

In the case of `CC1(C)O[C@@H](CCl)C[C@@H](C#N)O1`, the TGI in the assay on ACHN renal, in the assay with COLO 205 colon, in the assay with HCC-2998 colon, in the assay with HOP-62 NSCLC, with MALME-3M melanoma and in the assay with OVCAR-3 ovarian was greater than 100 µM each time. In addition, the TGI with SF-295 CNS, in the assay with UACC-62 melanoma and in the assay on UO-31 renal was greater than 100 µM throughout.
